Broadly, the IC50 is the concentration that inhibits the measured activity by half. A high value points to a need for much substance.

Format in all cases: biochemical
The target of one test is T1, CDK6/cyclinD3 (Homo sapiens, UniProt Q00534).
T1 construct: purchased Carna Biosciences 04-107
The experiment in a line: Cyclin-dependent kinase activity assay (continuous ATP coupling assay), CDK6/cyclinD3. The following applies: CDK6/cyclinD3 25 nM, ATP 500 μM, Rb copeptide 500 μM, 15 min preincubation, pH 7.5, 1% DMSO. Here is the method: (§1) Cyclin-dependent kinase activity assay was measured by continuous ATP coupling assay in which ADP generated by kinase catalyzed phosphorylation was converted back to ATP by consuming phosphoenolpyruvate (PEP) and NADH catalyzed by pyruvate kinase/lactate dehydrogenase (PK/LDH). The assay compositions (see, Table 1) consist of one of the kinases, including CDK1/cyclinB1, CDK2/cyclinE1, CDK4/cyclinD3, and CDK6/cyclinD3 at the designated concentration, ATP at the corresponding Km of the kinase, copeptide and the ATP coupling system of PEP, NADH and PK/LDH. The assay was conducted in a reaction buffer of 20 mM Tris (pH 7.5) with 50 mM NaCl, 0.5 mM DTT and 0.04% BSA, and results were monitored continuously by fluorescence decrease of NADH with excitation at 340 nm and emission at 460 nm. Linear regression of the resulting reaction time traces gave reaction velocities.
(§2) For inhibition assay, compounds were first serial diluted in a 1:3 ratio from 10 μM to 0.05 nM using 10× reaction buffer. One of the CDK kinase was then introduced to compounds solution and incubated for 15 min. Finally, the compositions of ATP coupling system were introduced to the resulting solution to initiate the reaction. The final reaction mixture was in 1× reaction assay buffer with 1% DMSO. The half-maximal inhibition concentrations (IC50) for compounds were determined by fitting the plots of reaction velocity against compound concentration with 4-variable IC50 equation. The inhibition constants (Ki) were determined by fitting the same plots with quadratic/Morrison equation. Data were analyzed using commercially available software Graphpad Prism.
(§3) Exemplary results are presented as calculated IC50 values. • A: IC50≤10 nM • B: IC50>10 nM and IC50<100 nM • C: IC50≥100 nM

In another test the target is T2, CDK4/cyclinD3 (Homo sapiens, UniProt P11802).
T2 construct: purchased Carna Biosciences 04-105
T2 sequence (P11802 whole entry): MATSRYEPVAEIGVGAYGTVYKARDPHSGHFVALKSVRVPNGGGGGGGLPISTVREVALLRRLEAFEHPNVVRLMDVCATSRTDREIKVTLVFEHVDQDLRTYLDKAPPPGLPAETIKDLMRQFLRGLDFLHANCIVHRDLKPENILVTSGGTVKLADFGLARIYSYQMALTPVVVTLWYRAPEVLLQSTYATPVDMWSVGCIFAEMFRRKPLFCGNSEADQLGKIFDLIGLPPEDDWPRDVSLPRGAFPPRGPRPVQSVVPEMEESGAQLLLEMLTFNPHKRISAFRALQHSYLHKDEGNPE
T2 sequence (P30281 whole entry partner): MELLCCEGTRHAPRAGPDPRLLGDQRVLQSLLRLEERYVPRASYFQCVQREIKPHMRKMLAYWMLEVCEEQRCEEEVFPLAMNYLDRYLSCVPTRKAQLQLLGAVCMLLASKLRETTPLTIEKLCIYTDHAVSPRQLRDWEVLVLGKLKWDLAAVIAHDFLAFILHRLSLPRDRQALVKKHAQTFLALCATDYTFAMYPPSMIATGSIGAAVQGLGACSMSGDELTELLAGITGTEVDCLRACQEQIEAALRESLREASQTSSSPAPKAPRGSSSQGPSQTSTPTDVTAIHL
The experiment in a line: Cyclin-dependent kinase activity assay (continuous ATP coupling assay), CDK4/cyclinD3. The note with it: CDK4/cyclinD3 60 nM, ATP 500 μM, Rb copeptide 500 μM, 15 min preincubation, pH 7.5, 1% DMSO. Here is the method: as §1, §2, §3

A further test concerns the target T3, CDK2/cyclinE1 (Homo sapiens, UniProt P24941).
T3 construct: purchased Carna Biosciences 04-165
The experiment in a line: Cyclin-dependent kinase activity assay (continuous ATP coupling assay), CDK2/cyclinE1. The following applies: CDK2/cyclinE1 5 nM, ATP 300 μM, Rb copeptide 100 μM, 15 min preincubation, pH 7.5, 1% DMSO. How it is done: as §1, §2, §3

A further test concerns the target T4, CDK1/cyclinB1 (Homo sapiens, UniProt P06493).
T4 construct: purchased Carna Biosciences 04-102
The experiment in a line: Cyclin-dependent kinase activity assay (continuous ATP coupling assay), CDK1/cyclinB1. The following applies: CDK1/cyclinB1 10 nM, ATP 200 μM, Histone1 copeptide 100 μM, 15 min preincubation, pH 7.5, 1% DMSO. Here is the method: as §1, §2, §3

T4 sequence (P06493 whole entry): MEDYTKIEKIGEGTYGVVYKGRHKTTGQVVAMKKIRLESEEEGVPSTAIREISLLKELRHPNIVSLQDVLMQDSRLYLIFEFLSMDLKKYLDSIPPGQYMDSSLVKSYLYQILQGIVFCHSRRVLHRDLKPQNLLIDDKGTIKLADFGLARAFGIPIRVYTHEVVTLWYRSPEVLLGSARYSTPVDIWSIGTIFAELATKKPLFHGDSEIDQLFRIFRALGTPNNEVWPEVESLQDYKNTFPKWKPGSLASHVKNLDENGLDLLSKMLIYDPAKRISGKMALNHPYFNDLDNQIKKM
T4 sequence (P14635 whole entry partner): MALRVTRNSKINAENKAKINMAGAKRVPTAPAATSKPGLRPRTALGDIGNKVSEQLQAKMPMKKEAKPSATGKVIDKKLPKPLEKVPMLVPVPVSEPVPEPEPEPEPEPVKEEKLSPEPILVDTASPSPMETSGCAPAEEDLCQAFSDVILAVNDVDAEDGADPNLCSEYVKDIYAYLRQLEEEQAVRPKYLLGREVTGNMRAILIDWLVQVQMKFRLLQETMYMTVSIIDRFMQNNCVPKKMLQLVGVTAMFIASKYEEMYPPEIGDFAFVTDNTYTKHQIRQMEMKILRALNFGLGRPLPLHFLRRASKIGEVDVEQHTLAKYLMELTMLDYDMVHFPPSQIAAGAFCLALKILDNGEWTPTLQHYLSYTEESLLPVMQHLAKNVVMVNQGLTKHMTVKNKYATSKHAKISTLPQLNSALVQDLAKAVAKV
T1 sequence (Q00534 whole entry): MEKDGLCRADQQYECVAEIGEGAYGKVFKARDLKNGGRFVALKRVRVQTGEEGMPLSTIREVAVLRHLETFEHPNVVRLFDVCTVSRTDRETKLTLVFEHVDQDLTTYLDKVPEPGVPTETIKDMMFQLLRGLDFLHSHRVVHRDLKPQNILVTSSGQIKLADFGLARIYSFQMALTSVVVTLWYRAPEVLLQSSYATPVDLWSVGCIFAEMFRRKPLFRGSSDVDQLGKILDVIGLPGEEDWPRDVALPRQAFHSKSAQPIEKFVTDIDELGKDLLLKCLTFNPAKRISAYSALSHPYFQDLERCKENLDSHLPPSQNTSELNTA
T1 sequence (P30281 whole entry partner): as the sequence (P30281 whole entry partner) above

Regarding `[2H]C([2H])([2H])NS(=O)(=O)c1ccc(Nc2ncc(C(F)(F)F)c(-n3cc(CC(C)(C)O)cn3)n2)cc1` [Example 58], the IC50 on CDK6/cyclinD3 is 10 to 100 nM; on CDK4/cyclinD3, 10 to 100 nM; against CDK2/cyclinE1, at most 10 nM; against CDK1/cyclinB1 it was 10 to 100 nM.
As to `CC(C)(O)Cc1cnn(-c2nc(N[C@H]3CCOC[C@@H]3O)ncc2C(F)(F)F)c1` (single isomer, unassigned) [Example 9], the IC50 on CDK6/cyclinD3, at CDK4/cyclinD3, at CDK2/cyclinE1 and against CDK1/cyclinB1 was at least 100 nM in each case.
With `CNS(=O)(=O)c1ccc(Nc2ncc(C(F)(F)F)c(-n3cc(C4CCN(C(C)=O)CC4)cn3)n2)cc1` [Example 14], the half-maximal inhibitory concentration (IC50) is at least 100 nM on CDK6/cyclinD3, 10 to 100 nM against CDK4/cyclinD3, 10 to 100 nM against CDK2/cyclinE1 and at least 100 nM at CDK1/cyclinB1.
Consider `Cc1cc(S(=O)(=O)NCCO)ccc1Nc1ncc(C(F)(F)F)c(-n2cccn2)n1` [Example 126], for which the IC50 at CDK6/cyclinD3 was at least 100 nM; against CDK4/cyclinD3, at least 100 nM; against CDK2/cyclinE1, at most 10 nM; against CDK1/cyclinB1, at least 100 nM.
`O=S(=O)(NC1(CO)CC1)c1ccc(Nc2ncc(C(F)(F)F)c(-n3cccn3)n2)cc1` [Example 135]: the IC50 on CDK6/cyclinD3 was at least 100 nM; against CDK4/cyclinD3, at least 100 nM; against CDK2/cyclinE1, at most 10 nM; against CDK1/cyclinB1, at least 100 nM.
Turning to `CNS(=O)(=O)c1ccc(Nc2ncc(C(F)(F)F)c(-n3cc(C4CC4)cn3)n2)cc1` [Example 50], the IC50 is 10 to 100 nM at CDK6/cyclinD3, 10 to 100 nM on CDK4/cyclinD3, at most 10 nM against CDK2/cyclinE1 and at least 100 nM against CDK1/cyclinB1.
On to `CNS(=O)(=O)c1ccc(Nc2ncc(C(F)(F)F)c(-n3cc(C4CCC4)cn3)n2)cc1` [Example 101], for which the IC50 on CDK6/cyclinD3 was at least 100 nM; against CDK4/cyclinD3, at least 100 nM; on CDK2/cyclinE1 it was 10 to 100 nM; against CDK1/cyclinB1, at least 100 nM.
Regarding `CNS(=O)(=O)c1ccc(Nc2ncc(C(F)(F)F)c(-n3cc(CC(C)C)cn3)n2)cc1` [Example 48], the IC50 is 10 to 100 nM against CDK6/cyclinD3, at most 10 nM against CDK4/cyclinD3, 10 to 100 nM at CDK2/cyclinE1 and at least 100 nM against CDK1/cyclinB1.
Regarding `CNS(=O)(=O)c1ccc(Nc2ncc(C(F)(F)F)c(-n3cc(N4CCCC4)cn3)n2)cc1` [Example 87, N-methyl-4-[[4-(4-pyrrolidin-1-ylpyrazol-1-yl)-5-(trifluoromethyl)pyrimidin-2-yl]amino]benzene sulfonamide], the IC50 against CDK6/cyclinD3 was at least 100 nM; on CDK4/cyclinD3, at least 100 nM; on CDK2/cyclinE1, 10 to 100 nM; against CDK1/cyclinB1, at least 100 nM.
For `CNS(=O)(=O)c1ccc(Nc2ncc(C(F)(F)F)c(-n3cc(C[C@@H](C)O)cn3)n2)cc1` (single isomer, unassigned) [Example 5], the half-inhibitory concentration (IC50) is 10 to 100 nM against CDK6/cyclinD3, 10 to 100 nM against CDK4/cyclinD3, at most 10 nM against CDK2/cyclinE1 and 10 to 100 nM against CDK1/cyclinB1.
Regarding `NS(=O)(=O)c1ccc(Nc2ncc(C(F)(F)F)c(-n3cccn3)n2)c(F)c1` [Example 28], the IC50 on CDK6/cyclinD3 is at least 100 nM; against CDK4/cyclinD3 it was at least 100 nM; on CDK2/cyclinE1, 10 to 100 nM; on CDK1/cyclinB1, at least 100 nM.
For the compound `[2H]C([2H])([2H])NS(=O)(=O)c1ccc(Nc2ncc(C(F)(F)F)c(-n3cccn3)n2)cc1` [Example 17], the IC50 on CDK6/cyclinD3 was at least 100 nM; against CDK4/cyclinD3 it was at least 100 nM; on CDK2/cyclinE1 it was at most 10 nM; on CDK1/cyclinB1, at least 100 nM.
Regarding `CNS(=O)(=O)c1ccc(Nc2ncc(C(F)(F)F)c(-n3cc(C4CC4(F)F)cn3)n2)cc1` (single isomer, unassigned) [Example 52, 4-[[4-[4-(2,2-difluorocyclopropyl)pyrazol-1-yl]-5-(trifluoromethyl)pyrimidin-2-yl]amino]-N-methyl-benzenesulfonamide], the IC50 was 10 to 100 nM against CDK6/cyclinD3, at least 100 nM at CDK4/cyclinD3, 10 to 100 nM against CDK2/cyclinE1 and at least 100 nM on CDK1/cyclinB1.
For the compound `CNS(=O)(=O)c1ccc(Nc2ncc(C(F)(F)F)c(-n3cc(C(C)(C)C(C)(C)O)cn3)n2)cc1` [Example 60], the IC50 is at least 100 nM on CDK6/cyclinD3, 10 to 100 nM on CDK4/cyclinD3, 10 to 100 nM against CDK2/cyclinE1 and 10 to 100 nM at CDK1/cyclinB1.
On to `O=S(=O)(NCCO)c1ccc(Nc2ncc(C(F)F)c(-n3cccn3)n2)cc1` [Example 116, 4-((5-(difluoromethyl)-4-(1H-pyrazol-1-yl)pyrimidin-2-yl)amino)-N-(2-hydroxyethyl)benzenesulfonamide], for which the IC50 was at least 100 nM on CDK6/cyclinD3, at least 100 nM at CDK4/cyclinD3, 10 to 100 nM on CDK2/cyclinE1 and at least 100 nM against CDK1/cyclinB1.
`CNS(=O)(=O)c1ccc(Nc2ncc(C(F)(F)F)c(-n3cc([C@H]4CCC[C@@H]4O)cn3)n2)cc1` (single isomer, unassigned) [Example 75]: the IC50 is at least 100 nM against CDK6/cyclinD3, 10 to 100 nM against CDK4/cyclinD3, 10 to 100 nM on CDK2/cyclinE1 and at least 100 nM at CDK1/cyclinB1.
Consider `CNS(=O)(=O)c1ccc(Nc2ncc(C(F)(F)F)c(-n3cc(C4COC4)cn3)n2)cc1` [Example 102], for which the IC50 on CDK6/cyclinD3 is 10 to 100 nM; at CDK4/cyclinD3, 10 to 100 nM; against CDK2/cyclinE1, at most 10 nM; against CDK1/cyclinB1, at least 100 nM.
On to `CNS(=O)(=O)c1ccc(Nc2ncc(Br)c(-n3cccn3)n2)cc1` [Example 25], for which the IC50 was at least 100 nM against CDK6/cyclinD3, at least 100 nM at CDK4/cyclinD3, at most 10 nM at CDK2/cyclinE1 and at least 100 nM on CDK1/cyclinB1.
`CC(C)(O)Cc1cnn(-c2nc(Nc3ccc(S(=O)(=O)NC4CC4)cc3)ncc2C(F)(F)F)c1` [Example 73]: the IC50 against CDK6/cyclinD3 is 10 to 100 nM; against CDK4/cyclinD3, 10 to 100 nM; at CDK2/cyclinE1, 10 to 100 nM; against CDK1/cyclinB1, at least 100 nM.
Take `CCS(=O)(=O)N1CC2(CC(Nc3ncc(C(F)(F)F)c(-n4cccn4)n3)C2)C1` [Example 32, 2-(ethyldioxo-λ6-sulfanyl)-6-{[4-(pyrazol-1-yl)-5-(trifluoromethyl)pyrimidin-2-yl]amino}-2-azaspiro[3.3]heptane]: the IC50 on CDK6/cyclinD3, on CDK4/cyclinD3, against CDK2/cyclinE1 and at CDK1/cyclinB1 was at least 100 nM in each case.
With `CNS(=O)(=O)c1ccc(Nc2ncc(C(F)(F)F)c(-n3cc(C4=CCCC4)cn3)n2)cc1` [Example 12, 4-((4-(4-(cyclopent-1-en-1-yl)-1H-pyrazol-1-yl)-5-(trifluoromethyl)pyrimidin-2-yl)amino)-N-methylbenzenesulfonamide], the IC50 at CDK6/cyclinD3 was at least 100 nM; at CDK4/cyclinD3 it was 10 to 100 nM; against CDK2/cyclinE1 it was 10 to 100 nM; at CDK1/cyclinB1, at least 100 nM.
Turning to `CNS(=O)(=O)c1ccc(Nc2ncc(C(F)(F)F)c(-n3cc(C4CCOC4)cn3)n2)cc1` (single isomer, unassigned) [Example 89], the IC50 was 10 to 100 nM on CDK6/cyclinD3, 10 to 100 nM at CDK4/cyclinD3, at most 10 nM at CDK2/cyclinE1 and at least 100 nM at CDK1/cyclinB1.
Turning to `CNS(=O)(=O)c1ccc(Nc2ncc(C(F)(F)F)c(-n3cc([C@H]4CC[C@H](O)C4)cn3)n2)cc1` (single isomer, unassigned) [Example 79], the IC50 against CDK6/cyclinD3 is 10 to 100 nM; against CDK4/cyclinD3, 10 to 100 nM; on CDK2/cyclinE1, at most 10 nM; against CDK1/cyclinB1, 10 to 100 nM.
`CCS(=O)(=O)N1C2CCC1CC(Nc1ncc(C(F)(F)F)c(-n3cccn3)n1)C2` (stereo not drawn) [Example 31]: the IC50 at CDK6/cyclinD3, against CDK4/cyclinD3, at CDK2/cyclinE1 and at CDK1/cyclinB1 was at least 100 nM in each case.
Take `CNS(=O)(=O)c1ccc(Nc2ncc(C(F)(F)F)c(-n3cc(C4CCN(C(C)C)CC4)cn3)n2)cc1` [Example 82]: the IC50 on CDK6/cyclinD3 is at least 100 nM; against CDK4/cyclinD3 it was 10 to 100 nM; at CDK2/cyclinE1 it was at most 10 nM; on CDK1/cyclinB1, 10 to 100 nM.
Turning to `CS(=O)(=O)Nc1ccc(Nc2ncc(C(F)(F)F)c(-n3cccn3)n2)cc1` [Example 120], the IC50 was at least 100 nM against CDK6/cyclinD3, at least 100 nM on CDK4/cyclinD3, 10 to 100 nM against CDK2/cyclinE1 and at least 100 nM at CDK1/cyclinB1.
Regarding `O=S(=O)(c1ccc(Nc2ncc(C(F)(F)F)c(-n3cccn3)n2)cc1)N1CCNCC1` [Example 37], the IC50 against CDK6/cyclinD3 was 10 to 100 nM; on CDK4/cyclinD3, 10 to 100 nM; against CDK2/cyclinE1 it was at most 10 nM; against CDK1/cyclinB1, at least 100 nM.

The record behind these values is patent publication US20260308145A1, “CDK2 INHIBITORS AND METHODS OF USING SAME” (Shenzhen lonova Life Science Co., Ltd., priority 2023, published 2026).
